Measured values from US8946439B2, “Amide compounds, compositions and uses thereof” (Evotec AG, priority 2008, dated 2015).

Experiments:
hP2X3 = target: T1, hP2X3 (Homo sapiens, UniProt P56373); experiment: Calcium uptake assay (P2X antagonist assay), P2X3 homomer; format: cell-based; details: calcium uptake assay, hP2X3; read-out: IC50 hP2X3 (nM), Ca Influx
T1 construct: expressed in transfected cells; host or cells: e.g. HEK293 or 1321N1
T1 sequence (P56373 1-397): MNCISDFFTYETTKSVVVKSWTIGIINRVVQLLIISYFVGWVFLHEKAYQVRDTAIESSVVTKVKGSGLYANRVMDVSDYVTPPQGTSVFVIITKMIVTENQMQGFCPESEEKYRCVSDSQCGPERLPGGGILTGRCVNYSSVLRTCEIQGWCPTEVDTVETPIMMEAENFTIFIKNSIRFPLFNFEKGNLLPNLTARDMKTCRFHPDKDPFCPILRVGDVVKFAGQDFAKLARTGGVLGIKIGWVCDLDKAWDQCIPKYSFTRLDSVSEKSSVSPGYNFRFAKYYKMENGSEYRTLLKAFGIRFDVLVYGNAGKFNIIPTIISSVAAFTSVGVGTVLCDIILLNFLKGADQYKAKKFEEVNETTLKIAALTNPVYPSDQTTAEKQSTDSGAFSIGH
Description: (§1) The human P2X2/3 chimera clone is created as described by Neelands et al, and then cloned into an expression vector as above. Receptors are expressed in cells (e.g., HEK293 or 1321N1 (obtained from the ECACC)) via transient transfection using standard lipid mediated transfection, or by creation of stable transfectants for each receptor. For expression of the P2X2/3 heteromeric receptor, the P2X3 expression vector is stably transfected into a cell line already stably expressing P2X2. P2X2/3 heteromer function is isolated using pharmacological methods. Cell lines are maintained in DMEM+5% Glutamax, the appropriate level of selective antibiotic, and 10% heat inactivated FBS.
(§2) Functional activity of compounds at the P2X receptor is determined by measuring their ability to inhibit agonist-induced calcium influx. Compounds are tested for antagonist activity against the P2X2/3 chimera, the P2X3 homomer, or the P2X2/3 heteromer. At the start of each screening day, the agonist EC50 is determined. Compound % inhibition or IC50s are subsequently determined using a predetermined agonist concentration (EC50-90 depending on cell line) as a stimulus. The agonists used are αβMeATP, ATP, or other ATP analogs. Compounds may be tested at concentrations ranging from 1 pM to 10 μM.
(§3) To test for antagonist activity, cells expressing the appropriate receptor are seeded onto 96 or 384 well plates 18-24 hours prior to assay. […] Plates are incubated at 37° C. and then equilibrated at room temperature. Antagonism of agonist-induced calcium influx is measured using a fluorescent imaging plate reader (e.g. FLIPR^TETRA, Molecular Devices, Sunnyvale, Calif.). The assay comprises two stages: a pre-treatment phase followed by a treatment phase. Compounds may be tested as follows: For the pre-treatment phase, 50 μL of 3× concentration of test compound in HBSS is added to cells containing […], of dye loading media to achieve a final concentration of 1× test compound. For the treatment phase, at a set interval after pre-treatment (1-30 minutes), 50 μL of 1× test compound plus 4× agonist solution is added, resulting in a final concentration of 1× compound and 1× agonist. […] Responses are measured as (peak fluorescence after agonist addition) minus (baseline fluorescence prior to treatment). Percent inhibition is calculated as follows:
(§4) [formula] IC50 values are determined by analyzing dose response data in a 4 parameter logistic fit using GraphPad Prizm.

hP2X2/3H = target: T2, hP2X2/3H (Homo sapiens, UniProt P56373+Q9UBL9); experiment: Calcium uptake assay (P2X antagonist assay), P2X2/3 heteromer; format: cell-based; details: calcium uptake assay, hP2X2/3H; read-out: IC50 hP2X2/3H (nM), Ca Influx
T2 construct: expressed in transfected cells; host or cells: e.g. HEK293 or 1321N1
T2 sequence (Q9UBL9 1-471): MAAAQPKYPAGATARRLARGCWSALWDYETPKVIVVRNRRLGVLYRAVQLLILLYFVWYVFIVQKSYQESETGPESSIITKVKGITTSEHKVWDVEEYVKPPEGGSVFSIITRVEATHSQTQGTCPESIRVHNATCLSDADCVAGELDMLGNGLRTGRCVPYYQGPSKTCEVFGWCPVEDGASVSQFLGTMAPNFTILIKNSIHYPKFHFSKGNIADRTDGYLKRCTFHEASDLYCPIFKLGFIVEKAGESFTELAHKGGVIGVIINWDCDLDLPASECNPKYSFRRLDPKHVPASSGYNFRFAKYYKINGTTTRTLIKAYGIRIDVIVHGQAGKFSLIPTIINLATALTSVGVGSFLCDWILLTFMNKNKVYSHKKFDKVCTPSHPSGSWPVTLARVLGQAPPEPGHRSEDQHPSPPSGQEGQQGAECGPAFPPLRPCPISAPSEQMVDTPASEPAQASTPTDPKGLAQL
T2 sequence (P56373 1-397): T1 sequence (P56373 1-397)
Description: as §1, §2, §3, §4

SMILES | IC50 (hP2X3) | IC50 (hP2X2/3H)
Cc1ccc(-c2cc(C(=O)NCc3cnc(C)nc3)cc(C(=O)N3CCCC3)c2)nc1 [Compound 28, 3-(5-Methylpyridin-2-yl)-N-((2-methylpyrimidin-5-yl)methyl)-5-(pyrrolidine-1-carbonyl)benzamide] | < 100 nM | 100 to 500 nM
Cc1ccc(-c2cc(C(=O)NCc3cnc(C)nc3)cc(C(=O)N3CC(O)C3)c2)cc1 [Compound 29, 5-(3-Hydroxyazetidine-1-carbonyl)-4′-methyl-N-((2-methylpyrimidin-5-yl)methyl)biphenyl-3-carboxamide] | < 100 nM | < 100 nM
Cc1ccc(-c2cc(C(=O)NCc3cnc(C)nc3)cc(C(=O)N3CCC3)c2)cc1 [Compound 30] | < 100 nM | < 100 nM
Cc1ccc(-c2cc(C(=O)NCc3cnc(C)nc3)cc(C(=O)N3CC3C)c2)cc1 (stereo not shown) [Compound 31, 4′-Methyl-5-(2-methylaziridine-1-carbonyl)-N-((2-methylpyrimidin-5-yl)methyl)biphenyl-3-carboxamide] | < 100 nM | 501 to 1000 nM
COC1CCN(C(=O)c2cc(C(=O)NCc3cnc(C)nc3)cc(-c3ccc(C)cc3)c2)C1 (stereo not shown) [Compound 32] | < 100 nM | < 100 nM
Cc1ccc(-c2cc(C(=O)NCc3cnc(C)nc3)cc(C(=O)N3CCCC3C(F)(F)F)c2)cc1 (stereo not shown) [Compound 33] | < 100 nM | < 100 nM
Cc1ccc(-c2cc(C(=O)NCc3cnc(C)nc3)cc(C(=O)N3CCC(F)(F)C3)c2)cc1 [Compound 34, 5-(3,3-Difluoropyrrolidine-1-carbonyl)-4′-methyl-N-((2-methylpyrimidin-5-yl)methyl)biphenyl-3-carboxamide] | < 100 nM | < 100 nM
Cc1ccc(-c2cc(C(=O)N[C@H](C)c3ccc(C(F)(F)F)nc3)cc(S(C)(=O)=O)c2)cc1 [Compound 35] | < 100 nM | < 100 nM
Cc1ccc(-c2cc(C(=O)NCc3ccc(C)c(S(C)(=O)=O)c3)cc(S(C)(=O)=O)c2)cc1 [Compound 36] | < 100 nM | < 100 nM
Cc1ccc(-c2cc(C(=O)NCc3ccc(C(F)(F)F)nc3)cc(S(C)(=O)=O)c2)cc1 [Compound 37, 4′-Methyl-5-(methylsulfonyl)-N-((6-(trifluoromethyl)pyridin-3-yl)methyl)biphenyl-3-carboxamide] | 100 to 500 nM | 100 to 500 nM
Cc1ncc(CNC(=O)c2cc(C(=O)N3CCCC3)cc(-c3ccc(F)cc3)c2)cn1 [Compound 38] | 100 to 500 nM | > 1000 nM
Cc1ccc(-c2cc(C(=O)NCc3cnc(C)nc3)cc(C(=O)N3CCCC3)c2)c(C#N)c1 [Compound 39, 2′-Cyano-4′-methyl-N-((2-methylpyrimidin-5-yl)methyl)-5-(pyrrolidine-1-carbonyl)biphenyl-3-carboxamide] | < 100 nM | < 100 nM
Cc1ncc(CNC(=O)c2cc(C(=O)N3CCCC3)cc(-c3ccc(Cl)cc3)c2)cn1 [Compound 40] | < 100 nM | 100 to 500 nM
CCCS(=O)(=O)c1cc(C(=O)NCc2ccc(C)c(S(C)(=O)=O)c2)cc(-c2ccc(C)cc2)c1 [Compound 41] | < 100 nM | < 100 nM
CCCS(=O)(=O)c1cc(C(=O)N[C@@H](C)CO)cc(-c2ccc(C)cc2)c1 [Compound 42] | < 100 nM | > 1000 nM
CCCS(=O)(=O)c1cc(C(=O)NCc2cnc(C)nc2)cc(-c2ccc(C)cc2)c1 [Compound 43] | < 100 nM | < 100 nM
CCCS(=O)(=O)c1cc(C(=O)NCc2ccc(C(F)(F)F)nc2)cc(-c2ccc(C)cc2)c1 [Compound 44] | 100 to 500 nM | 100 to 500 nM
Cc1ccc(-c2cc(C(=O)NC(C)c3ccc(Cl)c(S(C)(=O)=O)c3)cc(C(=O)N3CCCC3)c2)cc1 (stereo not shown) [Compound 45, N-(1-(4-Chloro-3-(methylsulfonyl)phenyl)ethyl)-4′-methyl-5-(pyrrolidine-1-carbonyl)biphenyl-3-carboxamide] | 100 to 500 nM | < 100 nM

SMILES | IC50 (hP2X3) | IC50 (hP2X2/3H)
Cc1ccc(-c2cc(C(=O)N[C@H](C)c3ccc(C(F)(F)F)nc3)cc(C(=O)N3CCCC3)c2)cc1 [Compound 46] | 100 to 500 nM | < 100 nM
Cc1ccc(-c2cc(C(=O)NCc3ccc(C(F)(F)F)nc3)cc(C(=O)N3CCCC3)c2)cc1 [Compound 47] | 100 to 500 nM | 100 to 500 nM
COc1ncc(CNC(=O)c2cc(C(=O)N3CCCC3)cc(-c3ccc(C)cc3)c2)cn1 [Compound 48] | < 100 nM | < 100 nM
Cc1ccc(-c2cc(C(=O)NCc3ccc4cccnc4c3)cc(C(=O)N3CCCC3)c2)cc1 [Compound 49, 4′-Methyl-5-(pyrrolidine-1-carbonyl)-N-(quinolin-7-ylmethyl)biphenyl-3-carboxamide] | 100 to 500 nM | 100 to 500 nM
Cc1ccc(-c2cc(C(=O)NCc3ccn4ccnc4c3)cc(C(=O)N3CCCC3)c2)cc1 [Compound 50] | < 100 nM | < 100 nM
Cc1ccc(-c2cc(C(=O)NCc3cnc(C)cn3)cc(C(=O)N3CCCC3)c2)cc1 [Compound 51] | < 100 nM | < 100 nM
Cc1ccc(-c2cc(C(=O)N[C@H](C)c3cnc(C)nc3)cc(C(=O)N3CCCC3)c2)cc1 [Compound 52] | < 100 nM | < 100 nM
Cc1ncc(CNC(=O)c2cc(C(=O)N3CCCC3)cc(-c3ccc(F)cc3F)c2)cn1 [Compound 53] | 100 to 500 nM | > 1000 nM
Cc1ncc(CNC(=O)c2cc(C(=O)N3CCCC3)cc(-c3ccc(C(F)(F)F)cc3)c2)cn1 [Compound 54] | > 1000 nM | > 1000 nM
CCCS(=O)(=O)c1cc(C(=O)N[C@H](C)c2cnc(C)nc2)cc(-c2ccc(C)cc2)c1 [Compound 55] | < 100 nM | < 100 nM
CCCS(=O)(=O)c1cc(C(=O)NCc2ccc(C)nc2)cc(-c2ccc(C)cc2)c1 [Compound 56] | < 100 nM | < 100 nM
CCCS(=O)(=O)c1cc(C(=O)NCc2ccn3ccnc3c2)cc(-c2ccc(C)cc2)c1 [Compound 57] | < 100 nM | < 100 nM
Cc1ccc(-c2cc(C(=O)NCc3ccc(C)nc3)cc(S(C)(=O)=O)c2)cc1 [Compound 58, 4′-Methyl-N-((6-methylpyridin-3-yl)methyl)-5-(methylsulfonyl)biphenyl-3-carboxamide] | < 100 nM | < 100 nM
Cc1ccc(-c2cc(C(=O)NCc3cnc(C)nc3)cc(S(C)(=O)=O)c2)c(C#N)c1 [Compound 59] | < 100 nM | 100 to 500 nM
Cc1ccc(-c2cc(C(=O)NCc3ccc(C)nc3)cc(C(=O)N3CCCC3)c2)cc1 [Compound 60] | < 100 nM | < 100 nM
Cc1ccc(-c2cc(C(=O)NCc3ccc(C)nc3)cc(C(=O)N3CCCC3)c2)c(C#N)c1 [Compound 61] | < 100 nM | < 100 nM
Cc1ccc(-c2cc(C(=O)NCc3ccc(C(F)(F)F)nc3)cc(C(=O)N3CCCC3)c2)c(C#N)c1 [Compound 62, 2′-Cyano-4′-methyl-5-(pyrrolidine-1-carbonyl)-N-((6-(trifluoromethyl)pyridin-3-yl)methyl)biphenyl-3-carboxamide] | < 100 nM | 100 to 500 nM
